In PMC11820736, “Design, Synthesis, and Anti-Tyrosinase, Anti-Melanogenic, and Antioxidant Activities of Novel (Z)-3-Benzyl-5-Benzylidene-2-Thioxothiazolidin-4-One Analogs” (Molecules, 2025):
“Also recorded” adds a separate entry of the source.

Assays:
B16F10 cells [1] = assay: Cellular melanin level measurement in B16F10 cells; format: cell-based, murine; details: α-MSH + IBMX, 72 h
Procedure: Stimulators comprising 1 μM α-melanocyte-stimulating hormone (α-MSH) and 200 μM 3-isobutyl-1-methylxanthine (IBMX) were administered 1 h after test sample treatment. The effects of analogs 1 and 3 on melanin production were determined by measuring the optical density at 405 nm after 72 h of treatment.
B16F10 cells were seeded at a density of 5000 per well of a 6-well plate, and the plate was cultivated under normal cell culture conditions for 24 h. […] In addition, 200 μM IBMX and 1 μM α-MSH (Alomone Labs™, Jerusalem, Israel) were added to each well and cultivated for 72 h under the normal cell culture conditions. To determine the cellular melanin levels, 1N–NaOH solution (100 μL) was added to each well and then kept at 60 °C for 1 h to lyse the cells. The cell lysates were washed twice with phosphate-buffered saline (PBS) and transferred to a 96-well plate, and the absorbance was recorded at 405 nm using a VE microplate reader to determine the cellular melanin content.

HaCaT cells = assay: Cytotoxicity assay on HaCaT cells (EZ-Cytox); format: cell-based, human; details: 2, 5, 10 and 20 μM, 72 h
Procedure: As keratinocytes are one of the major cells that constitute the epidermis, the effects of analogs 1–3 on HaCaT (immortalized human keratinocytes) cell viability were investigated. Analogs 1–3 were tested at concentrations of 0, 2, 5, 10, and 20 μM, and cell viability was determined 72 h after incubation.
The effect of (Z)-BBTT analogs 1–3 on HaCaT cell viability was examined using EZ-Cytox solution. HaCaT cells were seeded at a density of 1 × 10^3 in each well of a 96-well plate, and the plate was cultivated under normal cell culture conditions for 24 h. Analogs 1–3 were added to each well at concentrations of 0, 2, 5, 10, and 20 μM and then cultivated for 72 h under normal cell culture conditions. An aliquot (10 μL) of the EZ-Cytox solution was added to each well and cultivated for 2 h. Well absorbance was recorded at 450 nm using a VE microplate reader to calculate HaCaT cell viability.

B16F10 cells [2] = assay: Cytotoxicity assay on B16F10 murine melanoma cells (EZ-Cytox); format: cell-based; details: 1, 2, 5 and 10 μM, 72 h
Procedure: Cell viability for analogs 1–3 was examined on B16F10 cells at 1, 2, 5, and 10 μM concentrations for 72 h.
The influence of (Z)-BBTT analogs 1–3 on B16F10 cell viability was studied using an EZ-Cytox solution (EZ-1000®, DoGenBio, Seoul, Republic of Korea). B16F10 cells were seeded at a density of 1 × 10^3 in each well of a 96-well plate, and the plate was cultivated under normal cell culture conditions for 24 h. Analogs were added to each well at concentrations of 0, 1, 2, 5, and 10 μM, and then cells were cultivated for 72 h under normal cell culture conditions. An aliquot (10 μL) of the EZ-Cytox solution was added to each well and cultivated for 2 h. Well absorbance was recorded at 450 nm using a VE microplate reader to calculate cell viability.

In the case of `O=C1/C(=C/c2ccc(O)cc2O)SC(=S)N1Cc1ccccc1` [Compound 3, (Z)-3-Benzyl-5-(2,4-dihydroxybenzylidene)-2-thioxothiazolidin-4-one], the “inhibition of melanin production compared with kojic acid at the same concentration” value (B16F10 cells [1]; 10 μM) is reported as “significantly more potently than kojic acid”, the “effect on stimulator-induced increase in melanin contents” value (B16F10 cells [1]; 2, 5 and 10 μM, concentration-dependent) is reported as “significantly decreased” and the “melanin content compared with 10 μM kojic acid” value (B16F10 cells [1]; analog at 2 μM) is reported as “more weakly than 10 μM kojic acid”. For the same compound, the “cytotoxicity to HaCaT cells” value (HaCaT cells) was “no perceptible cytotoxicity” and the “cytotoxicity to B16F10 cells” value (B16F10 cells [2]) was “not cytotoxic; also recorded: no perceptible cytotoxicity”.
